Assay results reported in patent US12171230B2, “Herbicidal compositions” (Bayer Aktiengesellschaft, priority 2018, dated 2024).

Experiments:
Type in all cases: in vivo
[1] = system: Phalaris minor; test: Post-emergence herbicidal action against Phalaris minor
[2] = system: Viola tricolor; test: Post-emergence herbicidal action against Viola tricolor
[3] = system: Matricaria inodora; test: Post-emergence herbicidal action against Matricaria inodora
[4] = system: Lolium rigidum; test: Post-emergence herbicidal action against Lolium rigidum
[5] = system: Poa annua; test: Post-emergence herbicidal action against Poa annua
Summary of the method: (§1)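 Pot-grown plants, three weeks old at the three-leaf stage, received foliar sprays of various dosages. Visual assessment relative to untreated plants followed 3 to 4 weeks later.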

[6] = system: Centaurea cyano; test: Post-emergence herbicidal action against Centaurea cyano
Summary of the method: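 Formulations (spray powders or emulsion concentrates) applied at various doses onto foliage using 300 to 800 l/ha water; plants treated at three-leaf stage, three weeks post-sowing in sandy loam under greenhouse conditions.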

[7] = system: Bromus sterilis; test: Post-emergence herbicidal action against Bromus sterilis
[8] = system: Galium aparine; test: Post-emergence herbicidal action against Galium aparine
Summary of the method: as §1

[9] = system: Lamium purpureum; test: Post-emergence herbicidal action against Lamium purpureum
Method: When the observed efficacies exceed the formal sum total of the values of the tests with individual applications, they also exceed the expected value according to Colby, which is calculated using the formula below and is likewise regarded as an indication of synergism (cf. S. R. Colby; in Weeds 15 (1967) p. 20 to 22): E^C=A+B−([…])
Here: • A=efficacy of the active compound (A) in % at an application rate of a g a.i./ha; • B=efficacy of the active compound (B) in % at an application rate of b g a.i./ha; • E^C=expected value of the effect of the combination (A)+(B) in % at the combined application rate a+b g a.i./ha.
Seeds or rhizome pieces of mono- and dicotyledonous weeds are placed in sandy loam in pots, covered with soil and grown in a greenhouse under good growth conditions (temperature, air humidity, water supply). Three weeks after sowing, the test plants were treated at the three-leaf stage with the compositions according to the invention. The compositions according to the invention formulated as spray powders or as emulsion concentrates were sprayed onto the green plant parts in various dosages with an application rate of 300 to 800 l/ha of water (equivalent). After the test plants have been left to stand in the greenhouse under optimal growth conditions for about 3 to 4 weeks, the action of the preparations is scored visually in comparison to untreated controls. The compositions according to the invention also have good post-emergence herbicidal activity against a broad spectrum of economically important gramineous and broadleaf weeds.

[10] = system: Bromus sterilis; test: Post-emergence herbicidal action against Bromus sterilis; remark: listed apart in the source
[11] = system: Viola tricolor; test: Post-emergence herbicidal action against Viola tricolor; remark: listed apart in the source
[12] = system: Lolium rigidum; test: Post-emergence herbicidal action against Lolium rigidum; remark: listed apart in the source
[13] = system: Alopecurus myosuroides; test: Post-emergence herbicidal action against Alopecurus myosuroides
[14] = system: Lolium rigidum (resistant biotype); test: Post-emergence herbicidal action against Lolium rigidum (resistant biotype)
[15] = system: Phalaris minor; test: Post-emergence herbicidal action against Phalaris minor; remark: listed apart in the source
[16] = system: Lolium rigidum; test: Post-emergence herbicidal action against Lolium rigidum; conditions: 16 g of a.i./ha
Excerpt: (§2) The following abbreviations are used in the description and the tables that follow: • g of a.i./ha=grams of active substance (active ingredient) (=100% active compound) per hectare; • The sum total of the effects of the individual applications is reported under E^A; • expected values according to Colby are each reported under E^C.
(§3) The rating period is reported in days after application (DAT).

[17] = system: Phalaris minor; test: Post-emergence herbicidal action against Phalaris minor; conditions: 16 g of a.i./ha
Summary of the method: (§4)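 Rates are given as grams of active ingredient (100% active compound) per hectare. E^A is the summed effect of the individual applications and E^C the expected value by Colby, with ratings timed in days after application (DAT).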

[18] = system: Lolium rigidum (resistant biotype); test: Post-emergence herbicidal action against Lolium rigidum (resistant biotype); conditions: 16 g of a.i./ha
Summary of the method: as §4

[19] = system: Bromus sterilis; test: Post-emergence herbicidal action against Bromus sterilis; conditions: (Z148) post-emergence; for Herbicidal action 14 DAT against Bromus sterilis: g of a.i./ha: 4, 1, 270, 90, 30, 4 + 270, 4 + 90, 4 + 30, 1 + 30
Excerpt: as §2, §3

## CP(=O)(O)CCC(N)C(=O)O (centres unmarked) [(7.4) Glufosinate]
[1]; 14 DAT, 50 g a.i./ha
  Herbicidal action: 0%
[1]; 14 DAT, 150 g a.i./ha
  Herbicidal action: 30%
[1]; 28 DAT, 50 g a.i./ha
  Herbicidal action: 0%
[1]; 28 DAT, 150 g a.i./ha
  Herbicidal action: 10%
[1]; 28 DAT, 450 g a.i./ha
  Herbicidal action: 30%
[2]; 14 DAT, 150 g a.i./ha
  Herbicidal action: 80%
[2]; 28 DAT, 50 g a.i./ha
  Herbicidal action: 20%
[2]; 28 DAT, 150 g a.i./ha
  Herbicidal action: 50%
[2]; 28 DAT, 450 g a.i./ha
  Herbicidal action: 60%
[3]; 14 DAT, 450 g a.i./ha
  Herbicidal action: 90%
[3]; 28 DAT, 450 g a.i./ha
  Herbicidal action: 85%
[4]; 14 DAT, 150 g a.i./ha
  Herbicidal action: 50%
[4]; 14 DAT, resistant biotype, 150 g a.i./ha
  Herbicidal action: 30%
[4]; 28 DAT, 150 g a.i./ha
  Herbicidal action: 30%
[4]; 28 DAT, resistant biotype, 150 g a.i./ha
  Herbicidal action: 30%
[4]; 28 DAT, resistant biotype, 450 g a.i./ha
  Herbicidal action: 50%
[5]; 14 DAT, 50 g a.i./ha
  Herbicidal action: 10%
[5]; 14 DAT, 150 g a.i./ha
  Herbicidal action: 30%
[5]; 14 DAT, 450 g a.i./ha
  Herbicidal action: 40%
[6]; 14 DAT, 50 g a.i./ha
  Herbicidal action: 30%
[6]; 28 DAT, 450 g a.i./ha
  Herbicidal action: 60%
[7]; 14 DAT, 50 g a.i./ha
  Herbicidal action: 0%
[8]; 28 DAT, 50 g a.i./ha
  Herbicidal action: 0%

## CC(C)C1(C)N=C(c2ncccc2C(=O)O)NC1=O (centres unmarked) [(B4.13) Imazapyr]
[9]; 0.5 g of a.i./ha
  Herbicidal action in [%] 14 DAT against Lamium purpureum L.: 0%
  Herbicidal action in [%] 28 DAT against Lamium purpureum L.: 0%
[9]; 1.5 g of a.i./ha
  Herbicidal action in [%] 14 DAT against Lamium purpureum L.: 25%
  Herbicidal action in [%] 28 DAT against Lamium purpureum L.: 0%
[9]; 4.5 g of a.i./ha
  Herbicidal action in [%] 14 DAT against Lamium purpureum L.: 40%
  Herbicidal action in [%] 28 DAT against Lamium purpureum L.: 20%
[10]; 0.5 g of a.i./ha
  Herbicidal action in [%] 14 DAT against Bromus sterilis: 0%
[10]; 1.5 g of a.i./ha
  Herbicidal action in [%] 14 DAT against Bromus sterilis: 0%
  Herbicidal action in [%] 28 DAT against Bromus sterilis: 10%
[10]; 4.5 g of a.i./ha
  Herbicidal action in [%] 14 DAT against Bromus sterilis: 25%
  Herbicidal action in [%] 28 DAT against Bromus sterilis: 15%
[3]; 0.5 g of a.i./ha
  Herbicidal action in [%] 14 DAT against Matricaria inodora: 0%
  Herbicidal action in [%] 28 DAT against Matricaria inodora: 0%
[3]; 4.5 g of a.i./ha
  Herbicidal action in [%] 28 DAT against Matricaria inodora: 20%
[11]; 0.5 g of a.i./ha
  Herbicidal action in [%] 14 DAT against Viola tricolor: 10%
[11]; 1.5 g of a.i./ha
  Herbicidal action in [%] 14 DAT against Viola tricolor: 40%
  Herbicidal action in [%] 28 DAT against Viola tricolor: 20%
[11]; 4.5 g of a.i./ha
  Herbicidal action in [%] 14 DAT against Viola tricolor: 40%
  Herbicidal action in [%] 28 DAT against Viola tricolor: 15%
[5]; 0.5 g of a.i./ha
  Herbicidal action in [%] 28 DAT against Poa annua L.: 0%
[5]; 1.5 g of a.i./ha
  Herbicidal action in [%] 14 DAT against Poa annua L.: 0%
  Herbicidal action in [%] 28 DAT against Poa annua L.: 15%
[5]; 4.5 g of a.i./ha
  Herbicidal action in [%] 14 DAT against Poa annua L.: 0%
  Herbicidal action in [%] 28 DAT against Poa annua L.: 20%
[12]; 1.5 g of a.i./ha
  Herbicidal action in [%] 14 DAT against Lolium rigidum: 0%
  Herbicidal action in [%] 28 DAT against Lolium rigidum: 0%
[12]; 4.5 g of a.i./ha
  Herbicidal action in [%] 14 DAT against Lolium rigidum: 20%
  Herbicidal action in [%] 28 DAT against Lolium rigidum: 15%
[6]; 4.5 g of a.i./ha
  Herbicidal action in [%] 14 DAT against Centaurea cyanus: 10%
  Herbicidal action in [%] 28 DAT against Centaurea cyanus: 25%
[13]; 1.5 g of a.i./ha
  Herbicidal action in [%] 14 DAT against Alopecurus myosuroides: 10%
[13]; 4.5 g of a.i./ha
  Herbicidal action in [%] 14 DAT against Alopecurus myosuroides: 20%
  Herbicidal action in [%] 28 DAT against Alopecurus myosuroides: 20%
[14]; 0.5 g of a.i./ha
  Herbicidal action in [%] 14 DAT against Lolium rigidum (resistant biotype): 0%
[14]; 1.5 g of a.i./ha
  Herbicidal action in [%] 14 DAT against Lolium rigidum (resistant biotype): 10%
  Herbicidal action in [%] 28 DAT against Lolium rigidum (resistant biotype): 0%
[14]; 4.5 g of a.i./ha
  Herbicidal action in [%] 14 DAT against Lolium rigidum (resistant biotype): 15%
  Herbicidal action in [%] 28 DAT against Lolium rigidum (resistant biotype): 15%
[8]; 0.5 g of a.i./ha
  Herbicidal action in [%] 28 DAT against Galium aparine: 30%
[8]; 1.5 g of a.i./ha
  Herbicidal action in [%] 14 DAT against Galium aparine: 40%
  Herbicidal action in [%] 28 DAT against Galium aparine: 50%
[8]; 4.5 g of a.i./ha
  Herbicidal action in [%] 14 DAT against Galium aparine: 25%
  Herbicidal action in [%] 28 DAT against Galium aparine: 40%
[15]; 0.5 g of a.i./ha
  Herbicidal action in [%] 14 DAT against Phalaris minor: 0%
  Herbicidal action in [%] 28 DAT against Phalaris minor: 0%
[15]; 1.5 g of a.i./ha
  Herbicidal action in [%] 14 DAT against Phalaris minor: 0%
  Herbicidal action in [%] 28 DAT against Phalaris minor: 10%
[15]; 4.5 g of a.i./ha
  Herbicidal action in [%] 14 DAT against Phalaris minor: 25%
  Herbicidal action in [%] 28 DAT against Phalaris minor: 20%

## COC(=O)C1=C[C@@H](NC(=O)[C@@]2(C)CC(c3cc(F)cc(F)c3)=NO2)CO1 [Compound A6, methyl (3R)-3-[[(5R)-3-(3,5-difluorophenyl)-5-methyl-4H-isoxazole-5-carbonyl]amino]-2,3-dihydrofuran-5-carboxylate]
[16]
  Herbicidal action 28 DAT against Lolium rigidum: 90%
[1]; 28 DAT, 16 g a.i./ha
  Herbicidal action: 90%
[2]; 28 DAT, 4 g a.i./ha
  Herbicidal action: 50%
[2]; 28 DAT, 16 g a.i./ha
  Herbicidal action: 60%
[9]; 1 g of a.i./ha
  Herbicidal action 28 DAT against Lamium purpureum L.: 75%
[9]; 4 g of a.i./ha
  Herbicidal action 14 DAT against Lamium purpureum L.: 85%
[17]
  Herbicidal action 28 DAT against Phalaris minor: 90%
[3]; 14 DAT, 1 g a.i./ha
  Herbicidal action: 40%
[3]; 16 g of a.i./ha
  Herbicidal action 14 DAT against Matricaria inodora: 70%
[4]; 14 DAT, resistant biotype, 1 g a.i./ha
  Herbicidal action: 50%
[4]; 28 DAT, resistant biotype, 16 g a.i./ha
  Herbicidal action: 70%
[5]; 16 g of a.i./ha
  Herbicidal action 28 DAT against Poa annua L.: 70%
[5]; 28 DAT, 1 g a.i./ha
  Herbicidal action: 50%
[5]; 28 DAT, 16 g a.i./ha
  Herbicidal action: 70%
[6]; 14 DAT, 1 g a.i./ha
  Herbicidal action: 40%
[6]; 14 DAT, 4 g a.i./ha
  Herbicidal action: 85%
[6]; 28 DAT, 1 g a.i./ha
  Herbicidal action: 40%
[6]; 28 DAT, 4 g a.i./ha
  Herbicidal action: 70%
[18]
  Herbicidal action 28 DAT against Lolium rigidum (resistant biotype): 70%
[7]; 14 DAT, 4 g a.i./ha
  Herbicidal action: 80%
[7]; 14 DAT, 16 g a.i./ha
  Herbicidal action: 85%
[7]; 28 DAT, 1 g a.i./ha
  Herbicidal action: 50%
[8]; 1 g of a.i./ha
  Herbicidal action 28 DAT against Galium aparine: 60%
[19]; g of a.i./ha: 1, 270, 90, 30, 1 + 270, 1 + 90, 1 + 30
  Herbicidal action 28 DAT against Bromus sterilis: 50%
[19]; 1 g of a.i./ha
  Herbicidal action 14 DAT against Bromus sterilis: 75%
[19]; 4 g of a.i./ha
  Herbicidal action 14 DAT against Bromus sterilis: 80%
